Marks after values point to notes of the source that are not given here.
Each molecule was assayed against T1, hSERT (Homo sapiens, UniProt P31645) (assay: hSERT membrane radioligand binding assay (3H-citalopram)). Conditions: hSERT membranes, 1.0 nM 3H-citalopram.
T1 construct: expressed in transfected cells; host or cells: HEK-293
T1 sequence (P31645 whole entry): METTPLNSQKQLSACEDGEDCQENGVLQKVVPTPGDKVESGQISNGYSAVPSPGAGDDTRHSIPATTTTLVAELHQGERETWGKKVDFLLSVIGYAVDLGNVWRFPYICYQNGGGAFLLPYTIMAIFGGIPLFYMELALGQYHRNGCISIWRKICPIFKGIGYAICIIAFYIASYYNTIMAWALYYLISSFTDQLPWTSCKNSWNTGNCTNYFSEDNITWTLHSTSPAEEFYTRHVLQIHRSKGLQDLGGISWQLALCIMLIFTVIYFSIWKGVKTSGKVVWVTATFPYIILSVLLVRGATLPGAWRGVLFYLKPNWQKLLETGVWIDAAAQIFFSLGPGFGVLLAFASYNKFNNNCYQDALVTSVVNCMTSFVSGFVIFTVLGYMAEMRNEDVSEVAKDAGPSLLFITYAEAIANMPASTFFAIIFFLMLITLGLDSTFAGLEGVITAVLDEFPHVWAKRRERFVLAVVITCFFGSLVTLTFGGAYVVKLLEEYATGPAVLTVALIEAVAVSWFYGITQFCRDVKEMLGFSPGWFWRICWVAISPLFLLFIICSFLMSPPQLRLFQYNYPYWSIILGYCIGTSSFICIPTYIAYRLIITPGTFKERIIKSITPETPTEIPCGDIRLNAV
Procedure: (§1) Membrane radioligand binding assays were used to measure inhibition of labeled ligand (^3H-citalopram or ^3H-nisoxetine or ^3H-WIN35428) binding to membranes prepared from cells expressing the respective human recombinant transporter (hSERT or hNET or hDAT) in order to determine the pKi values of test compounds at the transporters.
(§2) Recombinant human embryonic kidney (HEK-293) derived cell lines stably transfected with hSERT or hNET, respectively, were grown in DMEM medium supplemented with 10% dialyzed FBS (for hSERT) or FBS (for hNET), 100 μg/ml penicillin, 100 μg/ml streptomycin, 2 mM L-glutamine and 250 μg/ml of the aminoglycoside antibiotic G418, in a 5% CO2 humidified incubator at 37° C. When cultures reached 80% confluence, the cells were washed thoroughly in PBS (without Ca^2+ and Mg^2+) and lifted with 5 mM EDTA in PBS. Cells were pelleted by centrifugation, resuspended in lysis buffer (10 mM Tris-HCl, pH7.5 containing 1 mM EDTA), homogenized, pelleted by centrifugation, then resuspended in 50 mM Tris-HCl, pH 7.5 and 10% sucrose at 4° C. Protein concentration of the membrane suspension was determined using a Bio-Rad Bradford Protein Assay kit. Membranes were snap frozen and stored at −80° C. Chinese hamster ovary membranes expressing hDAT (CHO-DAT) were purchased from PerkinElmer and stored at −80° C.
(§3) Binding assays were performed in a 96-well assay plate in a total volume of 200 μL assay buffer (50 mM Tris-HCl, 120 mM NaCl, 5 mM KCl, pH 7.4) with 0.5, 1, and 3 μg membrane protein, for SERT, NET and DAT, respectively.
(§4) Stock solutions (10 mM in DMSO) of test compound were prepared and serial dilutions made using Dilution Buffer (50 mM Tris-HCl, 120 mM NaCl, 5 mM KCl, pH 7.4, 0.1% BSA, 400 μM ascorbic acid).
(§5) Following a 60 minute incubation at 22° C. (or a period sufficient to reach equilibrium), the membranes were harvested by rapid filtration over a 96-well UniFilter GF/B plate, pretreated with 0.3% polyethyleneimine, and washed 6 times with 300 μl wash buffer (50 mM Tris-HCl, 0.9% NaCl, pH 7.5 at 4° C.). Plates were dried overnight at room temperature, ˜45 μl of MicroScint™-20 (Perkin Elmer) added and bound radioactivity quantitated via liquid scintillation spectroscopy. Inhibition curves and saturation isotherms were analyzed using GraphPad Prism Software package (GraphPad Software, Inc., San Diego, Calif.). IC50 values were generated from concentration response curves using the Sigmoidal Dose Response (variable slope) algorithm in Prism GraphPad. Kd and Bmax values for the radioligand were generated from saturation isotherms using the Saturation Binding Global Fit algorithm in Prism GraphPad. pKi (negative decadic logarithm of Ki) values for test compounds were calculated from the best-fit IC50 values, and the Kd value of the radioligand, using the Cheng-Prusoff equation (Cheng & Prusoff (1973) Biochem. Pharmacol. 22(23):3099-3108): Ki=IC50/(1+[L]/Kd), where [L]=concentration radioligand.
With `Fc1ccccc1OCc1cccnc1C1CCNCC1` [Example 14-2] the “SERT pKi” value was “≧6.0”.
In the case of `Clc1cccc(OCc2cccnc2C2CCNCC2)c1` [Example 14-3], the “SERT pKi” value is reported as “≧7.0”.
With `Fc1cccc(F)c1OCc1cccnc1C1CCNCC1` [Example 14-4] the “SERT pKi” value was “≧6.0”.
`Fc1cccc(Cl)c1OCc1cccnc1C1CCNCC1` [Example 14-5] was tested, and the “SERT pKi” value was “≧7.0”.
With `Clc1cccc(Cl)c1OCc1cccnc1C1CCNCC1` [Example 14-6] the “SERT pKi” value was “≧7.0”.
`Fc1ccc(F)c(OCc2cccnc2C2CCNCC2)c1F` [Example 14-7] was tested, and the “SERT pKi” value was “≧7.0”.
In the case of `Fc1cc(Cl)cc(F)c1OCc1cccnc1C1CCNCC1` [Example 14-8], the “SERT pKi” value is reported as “≧7.0”.
For `Clc1cccc(Cl)c1OCc1sccc1C1CCNCC1` [Example 25-1], the “SERT pKi” value was “≧7.0”.
`Fc1cccc(F)c1OCc1sccc1C1CCNCC1` [Example 25-2] was tested, and the “SERT pKi” value was “≧6.0”.
With `Fc1cccc(Cl)c1OCc1sccc1C1CCNCC1` [Example 25-3] the “SERT pKi” value was “≧7.0”.
In the case of `Fc1ccc(F)c(OCc2sccc2C2CCNCC2)c1F` [Example 25-4], the “SERT pKi” value is reported as “≧6.0”.
With `Fc1ccccc1OCc1cscc1C1CCNCC1` [Example 28-1] the “SERT pKi” value was “≧7.0”.
In the case of `Clc1cccc(OCc2cscc2C2CCNCC2)c1` [Example 28-2], the “SERT pKi” value is reported as “≧7.0”.
With `Fc1cc(Cl)cc(F)c1OCc1cscc1C1CCNCC1` [Example 28-4] the “SERT pKi” value was “≧7.0”.
In the case of `Fc1ccc(F)c(OCc2cscc2C2CCNCC2)c1Cl` [Example 28-5], the “SERT pKi” value is reported as “≧7.0”.
With `Fc1ccccc1OCc1ccsc1C1CCNCC1` [Example 31-1] the “SERT pKi” value was “≧6.0”.
For `Fc1cc(Cl)cc(F)c1OCc1ccsc1C1CCNCC1` [Example 31-4], the “SERT pKi” value was “≧7.0”.

Same assay, conditions: hSERT membranes, 1.0 nM 3H-citalopram; read-out: SERT pKi (converted)
With `Fc1cc(F)c(OCc2ncccc2C2CCNCC2)c(F)c1` [Example 1, 2-(2,4,6-Trifluorophenoxymethyl)-1′,2′,3′,4′,5′,6′-hexahydro[3,4]bipyridinyl] the Ki was at most 100 nM.
For `Fc1cccc(F)c1OCc1cnccc1C1CCNCC1` [Example 5, 3′-(2,6-Difluorophenoxymethyl)-1,2,3,4,5,6-hexahydro[4,4′]bipyridinyl], the Ki was at most 100 nM.
With `c1ccc(OCc2ccsc2C2CCNCC2)cc1` [Example 30, 4-(3-Phenoxymethylthiophen-2-yl)piperidine] the Ki was at most 100 nM.

What follows are molecules tested against T2, hNET (Homo sapiens, UniProt P23975) (assay: hNET membrane radioligand binding assay (3H-nisoxetine)). Conditions: hNET membranes, 1.0 nM 3H-nisoxetine.
T2 construct: expressed in transfected cells; host or cells: HEK-293
T2 sequence (P23975 whole entry): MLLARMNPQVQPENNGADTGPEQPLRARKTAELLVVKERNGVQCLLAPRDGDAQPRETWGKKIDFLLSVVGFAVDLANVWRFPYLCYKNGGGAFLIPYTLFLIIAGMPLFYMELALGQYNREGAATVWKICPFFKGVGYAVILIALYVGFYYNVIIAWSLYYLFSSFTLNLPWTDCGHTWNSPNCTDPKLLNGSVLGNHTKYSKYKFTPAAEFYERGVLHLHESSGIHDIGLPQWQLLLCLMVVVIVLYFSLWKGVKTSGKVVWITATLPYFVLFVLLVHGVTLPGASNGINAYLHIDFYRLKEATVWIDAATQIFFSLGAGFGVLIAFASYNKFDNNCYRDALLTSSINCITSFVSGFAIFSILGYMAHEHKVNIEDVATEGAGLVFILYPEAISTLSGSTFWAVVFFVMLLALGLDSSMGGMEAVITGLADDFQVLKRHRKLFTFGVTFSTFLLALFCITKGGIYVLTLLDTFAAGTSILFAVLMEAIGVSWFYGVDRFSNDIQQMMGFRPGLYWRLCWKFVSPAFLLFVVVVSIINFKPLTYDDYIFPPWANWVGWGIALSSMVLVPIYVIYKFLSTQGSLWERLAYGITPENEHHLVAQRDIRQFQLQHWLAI
Procedure: as §1, §2, §3, §4, §5
For `Fc1ccccc1OCc1cccnc1C1CCNCC1` [Example 14-2], the “NET pKi” value was “≧7.0”.
With `Clc1cccc(OCc2cccnc2C2CCNCC2)c1` [Example 14-3] the “NET pKi” value was “≧5.0”.
In the case of `Fc1cccc(F)c1OCc1cccnc1C1CCNCC1` [Example 14-4], the “NET pKi” value is reported as “≧7.0”.
For `Fc1cccc(Cl)c1OCc1cccnc1C1CCNCC1` [Example 14-5], the “NET pKi” value was “≧7.0”.
In the case of `Clc1cccc(Cl)c1OCc1cccnc1C1CCNCC1` [Example 14-6], the “NET pKi” value is reported as “≧7.0”.
`Fc1ccc(F)c(OCc2cccnc2C2CCNCC2)c1F` [Example 14-7] was tested, and the “NET pKi” value was “≧7.0”.
With `Fc1cc(Cl)cc(F)c1OCc1cccnc1C1CCNCC1` [Example 14-8] the “NET pKi” value was “≧7.0”.
With `Clc1cccc(Cl)c1OCc1sccc1C1CCNCC1` [Example 25-1] the “NET pKi” value was “≧5.0”.
In the case of `Fc1cccc(F)c1OCc1sccc1C1CCNCC1` [Example 25-2], the “NET pKi” value is reported as “≧6.0”.
`Fc1cccc(Cl)c1OCc1sccc1C1CCNCC1` [Example 25-3] was tested, and the “NET pKi” value was “≧5.0”.
`Fc1ccc(F)c(OCc2sccc2C2CCNCC2)c1F` [Example 25-4] was tested, and the “NET pKi” value was “≧6.0”.
For `Fc1ccccc1OCc1cscc1C1CCNCC1` [Example 28-1], the “NET pKi” value was “≧7.0”.
With `Clc1cccc(OCc2cscc2C2CCNCC2)c1` [Example 28-2] the “NET pKi” value was “≧6.0”.
`Fc1cc(Cl)cc(F)c1OCc1cscc1C1CCNCC1` [Example 28-4] was tested, and the “NET pKi” value was “≧7.0”.
With `Fc1ccc(F)c(OCc2cscc2C2CCNCC2)c1Cl` [Example 28-5] the “NET pKi” value was “≧7.0”.
`Fc1ccccc1OCc1ccsc1C1CCNCC1` [Example 31-1] was tested, and the “NET pKi” value was “≧7.0”.
With `Fc1cc(Cl)cc(F)c1OCc1ccsc1C1CCNCC1` [Example 31-4] the “NET pKi” value was “≧7.0”.

Same assay, conditions: hNET membranes, 1.0 nM 3H-nisoxetine; read-out: NET pKi (converted)
`Fc1cc(F)c(OCc2ncccc2C2CCNCC2)c(F)c1` [Example 1, 2-(2,4,6-Trifluorophenoxymethyl)-1′,2′,3′,4′,5′,6′-hexahydro[3,4]bipyridinyl] was tested, and the Ki was at most 100 nM.
Molecule `Fc1cccc(F)c1OCc1cnccc1C1CCNCC1` [Example 5, 3′-(2,6-Difluorophenoxymethyl)-1,2,3,4,5,6-hexahydro[4,4′]bipyridinyl] has a Ki of at most 100 nM.
For `c1ccc(OCc2ccsc2C2CCNCC2)cc1` [Example 30, 4-(3-Phenoxymethylthiophen-2-yl)piperidine], the Ki was at most 100 nM.

Each molecule was assayed against T1, hSERT (assay: fluorescence-based serotonin reuptake assay (Tsuruda et al. 2010; data with asterisk)). Conditions: serotonin reuptake inhibition, fluorescence-based assay (data indicated by an asterisk).
Assay type: cell-based
With `Clc1cccc(Cl)c1OCc1occc1C1CCNCC1` [Example 18-1] the “SERT pIC50” value was “≧7.0*”.
With `Clc1cccc(OCc2occc2C2CCNCC2)c1` [Example 18-2] the “SERT pIC50” value was “≧7.0*”.
In the case of `Fc1cccc(F)c1OCc1occc1C1CCNCC1` [Example 18-3], the “SERT pIC50” value is reported as “≧6.0*”.
In the case of `c1ccc(OCc2ccoc2C2CCNCC2)cc1` [Example 22-1], the “SERT pIC50” value is reported as “≧6.0*”.
For `Fc1cccc(F)c1OCc1ccoc1C1CCNCC1` [Example 22-2], the “SERT pIC50” value was “≧5.0*”.

Same assay, conditions: serotonin reuptake inhibition, fluorescence-based assay (data indicated by an asterisk); read-out: SERT pIC50 (converted)
Work on `c1ccc(OCc2occc2C2CCNCC2)cc1` [Example 17, 4-(2-Phenoxymethylfuran-3-yl)piperidine] yielded an IC50 of at most 100 nM.
Work on `Clc1cccc(OCc2ccoc2C2CCNCC2)c1` [Example 21, 4-[3-(3-Chlorophenoxymethyl)furan-2-yl]piperidine] yielded an IC50 of at most 100 nM.

These molecules were tested against T2, hNET (assay: fluorescence-based norepinephrine reuptake assay (Tsuruda et al. 2010; data with asterisk)). Conditions: norepinephrine reuptake inhibition, fluorescence-based assay (data indicated by an asterisk).
Assay type: cell-based
For `Clc1cccc(Cl)c1OCc1occc1C1CCNCC1` [Example 18-1], the “NET pIC50” value was “≧4.5*”.
For `Clc1cccc(OCc2occc2C2CCNCC2)c1` [Example 18-2], the “NET pIC50” value was “≧7.0*”.
`Fc1cccc(F)c1OCc1occc1C1CCNCC1` [Example 18-3] was tested, and the “NET pIC50” value was “≧5.0*”.
`c1ccc(OCc2ccoc2C2CCNCC2)cc1` [Example 22-1] was tested, and the “NET pIC50” value was “≧7.0*”.
In the case of `Fc1cccc(F)c1OCc1ccoc1C1CCNCC1` [Example 22-2], the “NET pIC50” value is reported as “≧6.0*”.

Same assay, conditions: norepinephrine reuptake inhibition, fluorescence-based assay (data indicated by an asterisk); read-out: NET pIC50 (converted)
Work on `c1ccc(OCc2occc2C2CCNCC2)cc1` [Example 17, 4-(2-Phenoxymethylfuran-3-yl)piperidine] yielded an IC50 of at most 100 nM.
With `Clc1cccc(OCc2ccoc2C2CCNCC2)c1` [Example 21, 4-[3-(3-Chlorophenoxymethyl)furan-2-yl]piperidine] the IC50 was at most 100 nM.
